Data from US10526294B2, “Pyrrolobenzodiazepines and conjugates thereof” (priority 2016, dated 2020).
pIC50: −log10 of the molar value.

Columns and labels:
Type in all cases: cell-based
MCF7 cells = assay: Cell viability assay (CellTiter-Glo), MCF7; details: Homo sapiens, HER2 low expressing levels cells, 72 h
Method: (§1) Cell Viability Assay for Antibody-Polymer-Drug Conjugates.
(§2) PBD compounds and conjugates thereof were evaluated for their antiproliferation properties in tumor cell lines in vitro using CellTiter-Glo® (Promega Corp). Cells were plated in black walled 96-well plate and allowed to adhere overnight at 37° C. in a humidified atmosphere of 5% CO2. BT474, SKBR3, NCI-N87 cells (HER2 expressing cells), JIMT1 cells (HER2 medium expression level cells) and MCF7 cells (HER2 low expressing levels cells) and were plated at a density of 5,000 cells per well. The next day the medium was replaced with 50 μL fresh medium and 50 μL of 2× stocks of PBD compounds or antibody-PBD conjugate were added to appropriate wells, mixed and incubated for 72 h. CellTiter-Glo® reagent was added to the wells at room temperature and the luminescent signal was measured after 10 min using a SpectraMax M5 plate reader (Molecular Devices). Dose response curves were generated using SoftMax Pro software. IC50 values were determined from four-parameter curve fitting.

NCI-N87 cells = assay: Cell viability assay (CellTiter-Glo), NCI-N87; details: Homo sapiens, HER2 expressing cells, 72 h
Method: as §1, §2

SKBR3 cells = assay: Cell viability assay (CellTiter-Glo), SKBR3; details: Homo sapiens, SK-BR-3, HER2 expressing cells, 72 h
Method: as §1, §2

BT474 cells = assay: Cell viability assay (CellTiter-Glo), BT474; details: Homo sapiens, BT-474, HER2 expressing cells, 72 h
Method: as §1, §2

JIMT1 cells = assay: Cell viability assay (CellTiter-Glo), JIMT1; details: Homo sapiens, JIMT-1, HER2 medium expression level cells, 72 h
Method: as §1, §2

Compound | pIC50 (MCF7 cells; PBD compounds (Table I)) | pIC50 (NCI-N87 cells; PBD compounds (Table I)) | pIC50 (SKBR3 cells; PBD compounds (Table I)) | pIC50 (BT474 cells; PBD compounds (Table I)) | pIC50 (JIMT1 cells; PBD compounds (Table I)) | pIC50 (MCF7 cells; conjugates (Table II)) | pIC50 (NCI-N87 cells; conjugates (Table II)) | pIC50 (SKBR3 cells; conjugates (Table II)) | pIC50 (BT474 cells; conjugates (Table II)) | pIC50 (JIMT1 cells; conjugates (Table II))
C=C1C[C@H]2C=Nc3cc(OCCCC(=O)Nc4cn(C)c(C(=O)Nc5ccc(-c6nc7ccc(N)cc7[nH]6)cc5)n4)c(OC)cc3C(=O)N2C1 [Compound 9, (S,Z)—N-(4-(5-amino-1H-benzo[d]imidazol-2-yl)phenyl)-4-(4-(7-methoxy-2-methylene-5-oxo-2,3,5,11a-tetrahydro-1H-benzo[e]pyrrolo[1,2-a][1,4]diazepin-8-yloxy)butanamido)-1-methyl-1H-imidazole-2-carboxamide] | 8.80 | 9.05 | 9.52 | 8.40 | 9.15 | – | – | – | – | –
C=C1C[C@H]2C=Nc3cc(OCCCC(=O)Nc4cn(C)c(C(=O)Nc5ccc(-c6cc7cc(N)ccc7[nH]6)cc5)n4)c(OC)cc3C(=O)N2C1 [Compound 18, (S)—N-(4-(5-amino-1H-indol-2-yl)phenyl)-4-(4-((7-methoxy-2-methylene-5-oxo-2,3,5,11a-tetrahydro-1H-benzo[e]pyrrolo[1,2-a][1,4]diazepin-8-yl)oxy)butanamido)-1-methyl-1H-imidazole-2-carboxamide] | 9.15 | 9.70 | 10.10 | 9.30 | 9.70 | – | – | – | – | –
C=C1C[C@H]2C=Nc3cc(OCCCC(=O)Nc4cn(C)c(C(=O)Nc5cc(C(=O)Nc6ccc(-c7nc8cc(N)ccc8[nH]7)cc6)n(C)c5)n4)c(OC)cc3C(=O)N2C1 [Compound 24, (S,Z)—N-(5-(4-(5-amino-1H-benzo[d]imidazol-2-yl)phenylcarbamoyl)-1-methyl-1H-pyrrol-3-yl)-4-(4-(7-methoxy-2-methylene-5-oxo-2,3,5,11a-tetrahydro-1H-benzo[e]pyrrolo[1,2-a][1,4]diazepin-8-yloxy)butanamido)-1-methyl-1H-imidazole-2-carboxamide] | 7.47 | 8.52 | 9.00 | 7.68 | 8.74 | – | – | – | – | –
C=C1C[C@H]2C=Nc3cc(OCCCC(=O)Nc4cc(-c5nc6ccc(N)cc6[nH]5)n(C)c4)c(OC)cc3C(=O)N2C1 [Compound 27, (S,Z)—N-(5-(6-amino-1H-benzo[d]imidazol-2-yl)-1-methyl-1H-pyrrol-3-yl)-4-(7-methoxy-2-methylene-5-oxo-2,3,5,11a-tetrahydro-1H-benzo[e]pyrrolo[1,2-a][1,4]diazepin-8-yloxy)butanamide] | 7.59 | 7.89 | 8.21 | 7.56 | 8.05 | – | – | – | – | –
C=C1CC2C=Nc3cc(OCCCC(=O)Nc4cn(C)c(C(=O)Nc5ccc(-c6nc7ccc(C(=O)OC)cc7[nH]6)cc5)n4)c(OC)cc3C(=O)N2C1 (stereo not shown) [Compound 33, (Z)-methyl 2-(4-(4-(4-(7-methoxy-2-methylene-5-oxo-2,3,5,11a-tetrahydro-1H-benzo[e]pyrrolo[1,2-a][1,4]diazepin-8-yloxy)butanamido)-1-methyl-1H-imidazole-2-carboxamido)phenyl)-1H-benzo[d]imidazole-6-carboxylate] | 8.47 | 9.05 | 9.52 | 8.51 | 9.52 | – | – | – | – | –
C=C1C[C@H]2C=Nc3cc(OCCCC(=O)Nc4cc(C(=O)Nc5ccc(-c6cc(C(=O)NCCCO)n(C)c6)cc5)n(C)c4)c(OC)cc3C(=O)N2C1 [Compound 37, (S,Z)—N-(3-hydroxypropyl)-4-(4-(4-(4-(7-methoxy-2-methylene-5-oxo-2,3,5,11a-tetrahydro-1H-benzo[e]pyrrolo[1,2-a][1,4]diazepin-8-yloxy)butanamido)-1-methyl-1H-pyrrole-2-carboxamido)phenyl)-1-methyl-1H-pyrrole-2-carboxamide] | 8.31 | 9.00 | 9.05 | 8.54 | 9.00 | – | – | – | – | –
COc1cc2c(cc1OCCCC(=O)Nc1cc(C(=O)Nc3ccc(-c4cc(C(=O)NCCCO)n(C)c4)cc3)n(C)c1)N=C[C@@H]1CCCN1C2=O [Compound 38, (S,Z)—N-(3-hydroxypropyl)-4-(4-(4-(4-(7-methoxy-5-oxo-2,3,5,11a-tetrahydro-1H-benzo[e]pyrrolo[1,2-a][1,4]diazepin-8-yloxy)butanamido)-1-methyl-1H-pyrrole-2-carboxamido)phenyl)-1-methyl-1H-pyrrole-2-carboxamide] | 8.10 | 8.40 | 8.70 | 8.15 | 8.52 | – | – | – | – | –
C=C1C[C@H]2C=Nc3cc(OCCCC(=O)Nc4cn(C)c(C(=O)Nc5ccc(-c6cc(C(=O)NCCCO)n(C)c6)cc5)n4)c(OC)cc3C(=O)N2C1 [Compound 39, (S)—N-(4-(5-((3-hydroxypropyl)carbamoyl)-1-methyl-1H-pyrrol-3-yl)phenyl)-4-(4-((7-methoxy-2-methylene-5-oxo-2,3,5,11a-tetrahydro-1H-benzo[e]pyrrolo[1,2-a][1,4]diazepin-8-yl)oxy)butanamido)-1-methyl-1H-imidazole-2-carboxamide] | – | 9.40 | 9.22 | 8.62 | 9.05 | – | – | – | – | –
COc1cc2c(cc1OCCCC(=O)Nc1cn(C)c(C(=O)Nc3ccc(-c4cc(C(=O)NCCCO)n(C)c4)cc3)n1)N=C[C@@H]1CCCN1C2=O [Compound 40, (S,Z)—N-(4-(5-(3-hydroxypropylcarbamoyl)-1-methyl-1H-pyrrol-3-yl)phenyl)-4-(4-(7-methoxy-5-oxo-2,3,5,11a-tetrahydro-1H-benzo[e]pyrrolo[1,2-a][1,4]diazepin-8-yloxy)butanamido)-1-methyl-1H-imidazole-2-carboxamide] | 8.26 | 8.77 | 9.10 | 8.52 | 8.89 | – | – | – | – | –
C=C1C[C@H]2C=Nc3cc(OCCCC(=O)Nc4cn(C)c(C(=O)Nc5ccc(-c6cc(C(=O)OCCCN)n(C)c6)cc5)n4)c(OC)cc3C(=O)N2C1 [Compound 41, (S,Z)-3-aminopropyl 4-(4-(4-(4-(7-methoxy-2-methylene-5-oxo-2,3,5,11a-tetrahydro-1H-benzo[e]pyrrolo[1,2-a][1,4]diazepin-8-yloxy)butanamido)-1-methyl-1H-imidazole-2-carboxamido)phenyl)-1-methyl-1H-pyrrole-2-carboxylate] | 6.85 | 8.20 | 8.52 | 6.52 | 9.10 | – | – | – | – | –
C=C1C[C@H]2C=Nc3cc(OCCCC(=O)Nc4cn(C)c(C(=O)Nc5ccc(-c6cc(C(=O)NC[C@H](C)O)n(C)c6)cc5)n4)c(OC)cc3C(=O)N2C1 [Compound 42, N-(4-(5-((S)-2-hydroxypropylcarbamoyl)-1-methyl-1H-pyrrol-3-yl)phenyl)-4-(4-((S,Z)-7-methoxy-2-methylene-5-oxo-2,3,5,11a-tetrahydro-1H-benzo[e]pyrrolo[1,2-a][1,4]diazepin-8-yloxy)butanamido)-1-methyl-1H-imidazole-2-carboxamide] | 8.35 | 8.85 | 8.85 | 8.29 | 8.92 | – | – | – | – | –
C=C1C[C@H]2C=Nc3cc(OCCCC(=O)Nc4cn(C)c(C(=O)Nc5ccc(-c6cc(C(=O)O)n(C)c6)cc5)n4)c(OC)cc3C(=O)N2C1 [Compound 43, (S,Z)-4-(4-(4-(4-(7-methoxy-2-methylene-5-oxo-2,3,5,11a-tetrahydro-1H-benzo[e]pyrrolo[1,2-a][1,4]diazepin-8-yloxy)butanamido)-1-methyl-1H-imidazole-2-carboxamido)phenyl)-1-methyl-1H-pyrrole-2-carboxylic acid] | 6.60 | 7.92 | 8.09 | 7.46 | 7.48 | – | – | – | – | –
C=C1C[C@H]2C=Nc3cc(OCCCC(=O)Nc4cn(C)c(C(=O)Nc5ccc(-c6cc7cc(OC)ccc7[nH]6)cc5)n4)c(OC)cc3C(=O)N2C1 [Compound 108, (S,Z)—N-(4-(5-methoxy-1H-indol-2-yl)phenyl)-4-(4-(7-methoxy-2-methylene-5-oxo-2,3,5,11a-tetrahydro-1H-benzo[e]pyrrolo[1,2-a][1,4]diazepin-8-yloxy)butanamido)-1-methyl-1H-imidazole-2-carboxamide] | – | – | – | – | – | 9.37 | 10.40 | 10.30 | 10.70 | –
C=C1CC2C=Nc3cc(OCCCC(=O)Nc4cn(C)c(C(=O)Nc5ccc(-c6cc(C(=O)n7ccc8cc(C(=O)OC)ccc87)n(C)c6)cc5)n4)c(OC)cc3C(=O)N2C1 (stereo not shown) [Compound 109, methyl 1-(4-(4-(4-(4-((7-methoxy-2-methylene-5-oxo-2,3,5,11a-tetrahydro-1H-benzo[e]pyrrolo[1,2-a][1,4]diazepin-8-yl)oxy)butanamido)-1-methyl-1H-imidazole-2-carboxamido)phenyl)-1-methyl-1H-pyrrole-2-carbonyl)-1H-indole-5-carboxylate] | – | – | – | – | – | 9.74 | 9.85 | – | 10.05 | 9.55
